Laboratory results reported in patent US20140219931A1, “P-MENTHANE-3,8-DIOL ISOMER MIXTURE, COOLING SENSATION COMPOSITION COMPRISING THE SAME, AND PRODUCT COMPRISING THE COOLING SENSATION COMPOSITION” (TAKASAGO INTERNATIONAL CORPORATION, priority 2011, published 2014).

Columns and labels:
[1] = tested on: mouth of professional panelists; assay: Test Experiment 1: sensory evaluation of cooling sensation strength in the mouth; type: in vivo, human; conditions: 180 ppm aqueous solution in the mouth, 10 panelists; relative score, Comparative Example 1 taken as 3
Procedure: (§1) [Test Experiment 1] Sensory Evaluation for Comparison of Cooling Sensation Strength between (1S)-p-Menthane-3,8-diol Isomer Mixture, (1RS)-p-Menthane-3,8-diol Isomer Mixture, and (1R)-p-Menthane-3,8-diol Isomer Mixture Aqueous solutions containing 180 ppm of the (1S)-p-menthane-3,8-diol isomer mixture, the (1RS)-p-menthane-3,8-diol isomer mixture, and the (1R)-p-menthane-3,8-diol isomer mixture obtained in Example 1, Example 2, and Comparative Example 1, respectively, were prepared. Sensory evaluation was conducted in the mouth on these 180 ppm aqueous solutions by 10 professional panelists having 5-year or longer experience.

[2] = tested on: mouth of professional panelists; assay: Test Experiment 2: sensory evaluation of cooling sensation persistence in the mouth; type: in vivo, human; conditions: for Cooling sensation persistence time: 180 ppm aqueous solution retained in the mouth 30 seconds, then spit out, time until cooling sensation disappeared, average of 10 panelists; for persistence of cooling sensation effect relative to the (1R)-p-menthane-3,8-diol isomer mixture: 180 ppm aqueous solution, from Table 2
Procedure: as §1, with “2]” for “1]”, “Persistence” for “Strength”, “experience. In the sensory evaluation, each 180 ppm aqueous solution was retained in the month for 30 seconds, and then spit out. After that, the time taken until the cooling sensation disappeared was measured, and the average was calculated to evaluate the effect.” for “experience.”

Row | Structure (SMILES) | Average cooling sensation strength score [1] | Cooling sensation persistence time [2] [min] | persistence of cooling sensation effect relative to the (1R)-p-menthane-3,8-diol isomer mixture [2]
1 | C[C@@H]1CCC(C(C)(C)O)C(O)C1 (mixture of isomers) [Comparative Example 1, (1R)-p-menthane-3,8-diol isomer mixture, reference compound] | 3 | 4.3 | –
2 | C[C@H]1CCC(C(C)(C)O)C(O)C1 (mixture of isomers) [Example 1, (1S)-p-menthane-3,8-diol isomer mixture] | 15 | 15.5 | approximately 3.6 times
3 | CC1CCC(C(C)(C)O)C(O)C1 (racemic) [Example 2, (1RS)-p-menthane-3,8-diol isomer mixture] | 9 | 9.8 | approximately 2.3 times
